According to ChEMBL document CHEMBL1857833, “Screening and optimization of specific chemical series against human African Trypanosomiasis (HAT)”:
Values after ≈ are worked out from the molar mass of the structure shown. Values joined by “and” are separate entries in the source; they are usually repeats but may differ in a detail not shown here. Equal values may be shown once. One block for each compound: values may come before it.

Legend:
Trypanosoma cruzi = test: DNDI: Inhibition of Chagas Disease parasite Trypanosoma cruzi (Tulahuen LacZ, Clone C4), in vitro.; format: functional, organism-based
[1] = DNDI: Cytotoxicity against L929 mouse fibroblasts, CYTO-SP, 24 hour; format: toxicity, cell-based; conditions: mouse, L929 mouse fibroblasts
[2] = DNDI: Cytotoxicity against L-6 rat myoblasts from skeletal muscle cells; format: toxicity, cell-based, L6; conditions: L-6 rat skeletal muscle myoblasts
[3] = DNDI: Cytotoxicity against L929 mouse fibroblasts, 72 hour.; format: toxicity, cell-based; conditions: mouse, L929 mouse fibroblasts
Trypanosoma brucei [4] = test: DNDI: Inhibition of Human African Trypanosomiasis, SBRI 427, in vitro; format: functional, organism-based
[5] = tested on: Trypanosoma brucei rhodesiense; test: DNDI: Inhibition of Human African Trypanosomiasis (HAT), STIB 900, in vitro; format: functional, organism-based
Leishmania donovani = test: DNDI: Inhibition of formation of Leishmania donovani (strain MHOM/ET/67/L82) axenic amastigotes, in vitro.; format: functional, organism-based
[6] = DNDI: Lipophilicity measured in Chromatographic hydrophobicity index (CHI) assay, pH 7.4; format: physicochemical; conditions: buffer
Plasmodium falciparum = test: DNDI: Inhibition of the malaria parasite Plasmodium falciparum, in vitro; format: functional, organism-based; conditions: K1
[7] = DNDI: half life in human liver microsomes at a concentration of 10uM; format: ADME, Microsome
[8] = DNDI: in vitro intrinsic clearance in human liver microsomes at a concentration of 10uM; format: ADME, Microsome
[9] = DNDI: in vitro intrinsic clearance in mouse liver microsomes at a concentration of 10uM; format: ADME, Microsome; conditions: read-out: CLint in vitro
[10] = DNDI: half life in mouse liver microsomes at a concentration of 10uM; format: ADME, Microsome
[11] = DNDI: Solubility in phosphate buffered saline at pH7.4 measured by optical density (turbidimetry) at room temperature (OD-RT); format: physicochemical; conditions: pH 7.4
[12] = DNDI: Solubility in phosphate buffered saline at pH7.4 measured by nephelometry at room temperature (NEPH-RT); format: physicochemical; conditions: pH 7.4
[13] = mouse, microsomes, 1 µM
Description: DNDI: in vitro intrinsic clearance in mouse liver microsomes at a concentration of 1uM

in vitro [14] = conditions: human, liver microsomes, t (1 / 2)
Description: DNDI: half life in human liver microsomes at a concentration of 1uM

in vitro [15] = conditions: human, liver microsomes, CLint in vitro
Description: DNDI: in vitro intrinsic clearance in human liver microsomes at a concentration of 1uM

in vitro [16] = conditions: mouse, liver microsomes, t (1 / 2)
Description: DNDI: half life in mouse liver microsomes at a concentration of 1uM

Trypanosoma brucei [17] = test: DNDI: Inhibition of Human African Trypanosomiasis, Cross 22, in vitro; format: functional, organism-based
Trypanosoma brucei [18] = test: DNDI: Mean survival time in days (MSD) of mice after intraperitoneal injection of Human African Trypanosomiasis (HAT), EATRO 110, in vivo at 20 mg/kg/day for 4 days.; format: functional, Mus musculus
[19] = Trypanosoma brucei, SBRI 427, read-out: IC50

IC50 (Trypanosoma brucei [4]; [19]): 3.96 mg/L (≈ 14.8 µM)
chromatographic logD [6]: 4.43
solubility kinetic [12]: 50 µM (≈ 13.4 µg/mL)
CLint in vitro [13]: 168 µL/min/mg
half-life at 1 µM (in vitro [14]): 1.15 h
microsomal CLint at 1 µM (in vitro [15]): 12 µL/min/mg
half-life at 1 µM (in vitro [16]): 0.0833 h
SMILES: O/N=C(/NC1CCCCC1)c1cccc2ccccc12
IC50 at 24 h [1]: > 50 mg/L

IC50 (Trypanosoma cruzi): 11.3 mg/L (≈ 36.8 µM)
IC50 (Trypanosoma brucei [17]): 1.54 mg/L (≈ 5.02 µM)
IC50 (Trypanosoma brucei [4]): 0.95 mg/L and 1.02 mg/L
IC50 (Trypanosoma brucei [4]; [19]): 1.7 mg/L (≈ 5.54 µM)
IC50 [5]: 0.478 mg/L (≈ 1.56 µM)
IC50 (Leishmania donovani): 18.7 mg/L (≈ 60.8 µM)
chromatographic logD [6]: 5.02
IC50 (Plasmodium falciparum): 2.6 mg/L (≈ 8.47 µM)
microsomal CLint at 10 µM [9]: 17 µL/min/mg
half-life at 10 µM [10]: 2.88 h
solubility kinetic [11]: 6.3 µM (≈ 1.93 µg/mL)
SMILES: CCCCCC(C)NCc1coc(-c2ccc(Cl)cc2)n1 (centres undefined)
IC50 at 24 h [1]: 17 mg/L (≈ 55.4 µM)
IC50 [2]: 10.9 mg/L (≈ 35.4 µM)
IC50 at 72 h [3]: 4.88 mg/L (≈ 15.9 µM)

The remaining lines, values behind:

SMILES: CCCCCC(C)NCc1coc(-c2ccc(OC)cc2)n1 (centres undefined)
IC50 (Trypanosoma cruzi): 2.9 mg/L (≈ 9.59 µM)
IC50 at 24 h [1]: 33 mg/L (≈ 109 µM)
IC50 [2]: 16 mg/L (≈ 53 µM)
IC50 at 72 h [3]: > 10 mg/L
IC50 (Trypanosoma brucei [4]; [19]): 2.13 mg/L (≈ 7.04 µM)
IC50 [5]: 1.06 mg/L (≈ 3.51 µM)
IC50 (Leishmania donovani): 12.4 mg/L (≈ 41.1 µM)
chromatographic logD [6]: 4.16
IC50 (Plasmodium falciparum): 1.77 mg/L (≈ 5.85 µM)
half-life at 10 µM [7]: 1.1 h
CLint in vitro [8]: 44 µL/min/mg
microsomal CLint at 10 µM [9]: 15 µL/min/mg
half-life at 10 µM [10]: 3.17 h
solubility kinetic [11]: 6.3 µM (≈ 1.91 µg/mL)

SMILES: O/N=C(\NC1CCCC1)c1ccccc1-c1ccccc1
IC50 (Trypanosoma cruzi): 21.4 mg/L (≈ 76.3 µM)
IC50 at 24 h [1]: > 50 mg/L
IC50 [2]: > 90 mg/L
IC50 at 72 h [3]: > 10 mg/L
IC50 (Trypanosoma brucei [4]; [19]): 1.17 mg/L (≈ 4.17 µM)
IC50 [5]: 18.5 mg/L (≈ 66 µM)
IC50 (Leishmania donovani): 53.1 mg/L (≈ 189 µM)
chromatographic logD [6]: 4.3
IC50 (Plasmodium falciparum): 2.57 mg/L (≈ 9.17 µM)
half-life at 10 µM [7]: 4.33 h
CLint in vitro [8]: 11 µL/min/mg
microsomal CLint at 10 µM [9]: 243 µL/min/mg
half-life at 10 µM [10]: 0.2 h
solubility kinetic [11]: 50 µM (≈ 14 µg/mL)

SMILES: CCCCCC(C)NCc1coc(-c2ccc(OC(C)CC)cc2)n1 (centres undefined)
IC50 at 72 h [3]: 1.55 mg/L (≈ 4.5 µM)
IC50 (Trypanosoma brucei [4]; [19]): 0.68 mg/L (≈ 1.97 µM)
MSD (Trypanosoma brucei [18]): 4 days
chromatographic logD [6]: > 5.2
solubility kinetic [12]: 3 µM (≈ 1.03 µg/mL)
CLint in vitro [13]: 3 µL/min/mg
half-life at 1 µM (in vitro [16]): 4.28 h

SMILES: CCCCCC(C)NCc1coc(-c2ccc(OCC(C)C)cc2)n1 (centres undefined)
IC50 at 72 h [3]: 1.48 mg/L (≈ 4.3 µM)
IC50 (Trypanosoma brucei [4]; [19]): 0.5 mg/L (≈ 1.45 µM)
MSD (Trypanosoma brucei [18]): 4 days
chromatographic logD [6]: > 5.2
solubility kinetic [12]: 3 µM (≈ 1.03 µg/mL)
CLint in vitro [13]: 9 µL/min/mg
half-life at 1 µM (in vitro [16]): 1.57 h
